pEC50: −log10 of the molar value. Counter-ions that a name gives are not always drawn.
Experiments:
Format in all cases: cell-based
pig TRPM8 [1] = target: T1, pig TRPM8 (Sus scrofa, UniProt F1SM15); test: In vitro pig TRPM8 fluorescence calcium flux assay (recombinant CHO cells, Fluo4-AM, FDSS6000); conditions: recombinant CHO cells expressing pig TRPM8; menthol-related EC50, normalized to 100 μM menthol
T1 construct: expressed in transfected cells; host or cells: CHO (pcDNA5/FRT/TO vector; hygromycin B and blasticidin selection)
T1 sequence (F1SM15 1-1104): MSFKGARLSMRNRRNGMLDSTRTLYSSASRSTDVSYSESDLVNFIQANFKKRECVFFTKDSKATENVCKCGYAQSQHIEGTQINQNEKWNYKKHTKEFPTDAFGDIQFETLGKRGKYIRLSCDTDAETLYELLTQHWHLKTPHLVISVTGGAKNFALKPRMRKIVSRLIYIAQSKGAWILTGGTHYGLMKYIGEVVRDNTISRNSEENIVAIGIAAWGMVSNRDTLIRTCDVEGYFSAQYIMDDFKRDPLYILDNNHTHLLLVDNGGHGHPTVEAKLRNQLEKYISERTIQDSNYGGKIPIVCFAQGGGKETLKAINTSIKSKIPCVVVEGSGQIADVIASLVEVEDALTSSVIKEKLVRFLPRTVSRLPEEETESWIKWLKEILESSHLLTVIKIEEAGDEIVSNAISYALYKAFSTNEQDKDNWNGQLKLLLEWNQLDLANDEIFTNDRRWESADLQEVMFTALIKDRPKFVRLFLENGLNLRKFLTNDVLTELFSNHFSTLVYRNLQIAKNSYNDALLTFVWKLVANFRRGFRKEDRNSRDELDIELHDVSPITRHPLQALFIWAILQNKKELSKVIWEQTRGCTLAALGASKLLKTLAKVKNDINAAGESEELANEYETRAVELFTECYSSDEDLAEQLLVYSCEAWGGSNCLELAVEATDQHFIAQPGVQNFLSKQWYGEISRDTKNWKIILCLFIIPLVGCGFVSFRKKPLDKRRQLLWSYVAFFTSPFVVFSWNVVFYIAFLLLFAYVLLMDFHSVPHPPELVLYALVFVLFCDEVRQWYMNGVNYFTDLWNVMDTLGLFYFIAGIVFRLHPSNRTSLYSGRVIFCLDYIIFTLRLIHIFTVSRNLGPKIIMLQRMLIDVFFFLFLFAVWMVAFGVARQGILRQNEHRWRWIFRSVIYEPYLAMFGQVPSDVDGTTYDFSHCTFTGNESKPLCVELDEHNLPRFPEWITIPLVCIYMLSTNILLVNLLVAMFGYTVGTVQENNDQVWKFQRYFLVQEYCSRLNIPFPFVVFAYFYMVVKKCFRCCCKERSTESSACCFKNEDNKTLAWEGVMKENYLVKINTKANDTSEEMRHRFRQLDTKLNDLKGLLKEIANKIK
How it was run: (§1)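 Agonist EC50 values come from sixteen-point dose responses normalized to the 100 μM menthol maximum, fitted sigmoidally. Calcium rise was followed for 3 min post-addition in recombinant CHO lines (human or pig TRPM8). Cells were dye-loaded with 2 μM Fluo4-AM, 1 h at room temperature, probenecid-containing HBSS.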

pig TRPM8 [2] = target: T1, pig TRPM8; test: In vitro pig TRPM8 automated patch-clamp assay (SyncroPatch 384PE, CHO cells); conditions: CHO cells expressing pig TRPM8, 28° C.
How it was run: (§2)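 Whole-cell automated patch clamp on engineered CHO lines at 28 °C, held at −60 mV, with −80 to +80 mV ramps every 5 s; one compound concentration per well. Peak current minus pre-addition baseline was normalised to no-compound control and Emax, and EC50 was fitted; 200 μM menthol wells served as control.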

human TRPM8 [3] = target: T2, human TRPM8 (Homo sapiens, UniProt Q7Z2W7); test: In vitro human TRPM8 fluorescence calcium flux assay (recombinant CHO cells, Fluo4-AM, FDSS6000); conditions: recombinant CHO cells expressing human TRPM8; menthol-related EC50, normalized to 100 μM menthol
T2 construct: expressed in transfected cells; host or cells: CHO (p658 mammalian expression vector)
T2 sequence (Q7Z2W7 whole entry): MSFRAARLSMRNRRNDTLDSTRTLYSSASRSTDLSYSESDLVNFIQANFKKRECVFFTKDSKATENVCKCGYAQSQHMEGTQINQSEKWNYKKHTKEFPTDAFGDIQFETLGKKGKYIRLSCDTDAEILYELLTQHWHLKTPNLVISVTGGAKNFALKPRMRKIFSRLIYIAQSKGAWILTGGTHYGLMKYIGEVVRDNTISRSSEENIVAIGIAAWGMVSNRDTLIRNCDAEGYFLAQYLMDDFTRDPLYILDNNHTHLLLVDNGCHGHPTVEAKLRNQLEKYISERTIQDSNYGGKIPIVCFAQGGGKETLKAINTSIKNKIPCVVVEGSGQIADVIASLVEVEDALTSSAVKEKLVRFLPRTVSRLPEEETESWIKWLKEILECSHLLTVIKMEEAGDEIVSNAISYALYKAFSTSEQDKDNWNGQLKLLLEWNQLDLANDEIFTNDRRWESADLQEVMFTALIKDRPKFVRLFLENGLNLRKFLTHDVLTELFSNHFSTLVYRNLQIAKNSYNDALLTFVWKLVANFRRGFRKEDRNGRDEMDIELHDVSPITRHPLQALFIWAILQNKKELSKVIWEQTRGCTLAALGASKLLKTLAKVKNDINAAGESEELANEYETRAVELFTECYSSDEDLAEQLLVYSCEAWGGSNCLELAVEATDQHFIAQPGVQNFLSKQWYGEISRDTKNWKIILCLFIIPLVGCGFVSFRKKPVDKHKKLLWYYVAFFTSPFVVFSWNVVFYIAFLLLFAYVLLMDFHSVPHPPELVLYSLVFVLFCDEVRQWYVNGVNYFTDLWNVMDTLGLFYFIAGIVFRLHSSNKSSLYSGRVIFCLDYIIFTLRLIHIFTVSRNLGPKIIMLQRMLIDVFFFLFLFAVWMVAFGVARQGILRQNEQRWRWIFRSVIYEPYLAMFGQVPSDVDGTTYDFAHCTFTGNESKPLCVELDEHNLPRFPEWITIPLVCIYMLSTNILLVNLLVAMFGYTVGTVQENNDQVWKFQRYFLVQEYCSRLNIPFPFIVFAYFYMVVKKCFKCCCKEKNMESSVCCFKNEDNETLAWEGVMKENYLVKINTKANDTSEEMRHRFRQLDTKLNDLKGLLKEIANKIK
How it was run: as §1

human TRPM8 [4] = target: T2, human TRPM8; test: In vitro human TRPM8 automated patch-clamp assay (SyncroPatch 384PE, CHO cells); conditions: CHO cells expressing human TRPM8, 28° C.
How it was run: as §2

| Structure (SMILES) | pEC50 (pig TRPM8 [1]) | pEC50 (pig TRPM8 [2]) | pEC50 (human TRPM8 [3]) | pEC50 (human TRPM8 [4]) |
| --- | --- | --- | --- | --- |
| CC(C)[C@@H]1CC[C@@H](C)C[C@@]1(O)C(=O)NCC(C(=O)OCCN)c1ccccc1 (stereo partly drawn) [Example 71, 2-aminoethyl 3-((1S,2S,5R)-1-hydroxy-2-isopropyl-5-methylcyclohexane-1-carboxamido)-2-phenylpropanoate hydrochloride] | 8.70 | 6.06 | 9.00 | 6.74 |
| [2H]C(O)(CNC(=O)[C@]1(O)C[C@H](C)CC[C@H]1C(C)C)c1ccccc1 (stereo partly drawn) [Example 72, (1S,2S,5R)-1-hydroxy-N-(2-hydroxy-2-phenylethyl-2-d)-2-isopropyl-5-methylcyclohexane-1-carboxamide] | 8.70 | 6.10 | 8.52 | 5.86 |
| CC(C)[C@@H]1CC[C@@H](C)C[C@@]1(O)C(=O)NCC(C(=O)OCC(C)(C)N)c1ccccc1 (stereo partly drawn) [Example 73, 2-amino-2-methylpropyl 3-((1S,2S,5R)-1-hydroxy-2-isopropyl-5-methylcyclohexane-1-carboxamido)-2-phenylpropanoate hydrochloride] | 8.10 | 5.95 | 8.40 | 6.16 |
| COC(=O)Cc1cccc(CCNC(=O)[C@]2(O)C[C@H](C)CC[C@H]2C(C)C)c1 [Example 74, methyl 2-(3-(2-((1S,2S,5R)-1-hydroxy-2-isopropyl-5-methylcyclohexane-1-carboxamido)ethyl)phenyl)acetate] | 8.05 | 5.29 | 7.39 | 5.54 |
| COc1cc(CO)ccc1OC(=O)CNC(=O)[C@]1(O)C[C@H](C)CC[C@H]1C(C)C [Example 79, 4-(hydroxymethyl)-2-methoxyphenyl ((1S,2S,5R)-1-hydroxy-2-isopropyl-5-methylcyclohexane-1-carbonyl)glycinate] | 7.24 | 5.29 | 7.07 | 5.26 |
| CC(C)[C@@H]1CC[C@@H](C)C[C@@]1(O)C(=O)NCC(=O)c1ccccc1F [Example 85, (1S,2S,5R)—N-(2-(2-fluorophenyl)-2-oxoethyl)-1-hydroxy-2-isopropyl-5-methylcyclohexane-1-carboxamide] | 8.62 | 6.01 | 8.48 | 6.15 |
| CC(C)[C@@H]1CC[C@@H](C)C[C@@]1(O)C(=O)NCC(=O)Nc1ccc(O)cc1 [Example 88, (1S,2S,5R)-1-hydroxy-N-(2-((4-hydroxyphenyl)amino)-2-oxoethyl)-2-isopropyl-5-methylcyclohexane-1-carboxamide] | 7.70 | 5.96 | 7.25 | 5.82 |
| COC(=O)CCc1ccccc1CCNC(=O)[C@]1(O)C[C@H](C)CC[C@H]1C(C)C [Example 93, methyl 3-(2-(2-((1S,2S,5R)-1-hydroxy-2-isopropyl-5-methylcyclohexane-1-carboxamido)ethyl)phenyl)propanoate] | 7.17 | 5.70 | 7.31 | 5.55 |
| CC(C)[C@@H]1CC[C@@H](C)C[C@@]1(O)C(=O)N[C@@H]1COc2ccccc2C1 [Example 94, (1S,2S,5R)—N-((3S)-chroman-3-yl)-1-hydroxy-2-isopropyl-5-methylcyclohexane-1-carboxamide] | 8.11 | 5.82 | 8.19 | 5.97 |
| CC(C)[C@@H]1CC[C@@H](C)C[C@@]1(O)C(=O)NCC1(O)CCOc2ccccc21 (stereo partly drawn) [Example 96, (1S,2S,5R)-1-hydroxy-N-((4-hydroxychroman-4-yl)methyl)-2-isopropyl-5-methylcyclohexane-1-carboxamide] | 7.60 | 5.96 | 7.99 | 6.20 |
| COC(=O)c1cccc(CCNC(=O)[C@]2(O)C[C@H](C)CC[C@H]2C(C)C)c1 [Example 107, methyl 3-(2-((1S,2S,5R)-1-hydroxy-2-isopropyl-5-methylcyclohexane-1-carboxamido)ethyl)benzoate] | 7.66 | 5.61 | 7.37 | 5.42 |
| CC(C)[C@@H]1CC[C@@H](C)C[C@@]1(O)C(=O)NCCc1ccc(CO)cc1 [Example 109, (1S,2S,5R)-1-hydroxy-N-(4-(hydroxymethyl)phenethyl)-2-isopropyl-5-methylcyclohexane-1-carboxamide] | 7.92 | 5.75 | 7.65 | 5.66 |
| CC(C)[C@@H]1CC[C@@H](C)C[C@@]1(O)C(=O)NCCOC(=O)c1ccccc1 [Example 111, 2-((1S,2S,5R)-1-hydroxy-2-isopropyl-5-methylcyclohexane-1-carboxamido)ethyl benzoate] | 7.60 | 5.29 | 7.14 | 5.29 |
| COc1ccc(CCNC(=O)[C@]2(O)C[C@H](C)CC[C@H]2C(C)C)cc1OC [Example 113, (1S,2S,5R)-N-[2-(3,4-dimethoxyphenyl)ethyl]-1-hydroxy-2-isopropyl-5-methyl-cyclohexanecarboxamide] | 7.03 | 5.02 | 7.00 | 5.85 |
| CC(C)[C@@H]1CC[C@@H](C)C[C@@]1(O)C(=O)NCCc1ccccc1O [Example 116, (1S,2S,5R)-1-hydroxy-N-[2-(2-hydroxyphenyl)ethyl]-2-isopropyl-5-methyl-cyclohexanecarboxamide] | 8.60 | 6.30 | 8.48 | 5.89 |
| CC(C)[C@@H]1CC[C@@H](C)C[C@@]1(O)C(=O)NCCc1ccc(O)cc1 [Example 117, (1S,2S,5R)-1-hydroxy-N-[2-(4-hydroxyphenyl)ethyl]-2-isopropyl-5-methyl-cyclohexanecarboxamide] | 8.35 | 5.63 | 7.75 | 5.60 |
| CC(C)[C@@H]1CC[C@@H](C)C[C@@]1(O)C(=O)NCCc1ccncc1 [Example 119, (1S,2S,5R)-1-hydroxy-2-isopropyl-5-methyl-N-[2-(4-pyridyl)ethyl]cyclohexanecarboxamide] | 8.20 | 5.14 | 7.43 | 5.49 |
| CC(C)[C@@H]1CC[C@@H](C)C[C@@]1(O)C(=O)NCCOc1ccccc1 [Example 120, (1S,2S,5R)-1-hydroxy-2-isopropyl-5-methyl-N-(2-phenoxyethyl)cyclohexanecarboxamide] | 7.86 | 5.25 | 7.51 | 5.44 |
| CC(C)[C@@H]1CC[C@@H](C)C[C@@]1(O)C(=O)NCCc1cccnc1 [Example 124, (1S,2S,5R)-1-hydroxy-2-isopropyl-5-methyl-N-[2-(3-pyridyl)ethyl]cyclohexanecarboxamide] | 7.93 | 5.17 | 7.44 | 5.19 |
| CC(C)[C@@H]1CC[C@@H](C)C[C@@]1(O)C(=O)NCCc1ccccn1 [Example 125, (1S,2S,5R)-1-hydroxy-2-isopropyl-5-methyl-N-[2-(2-pyridyl)ethyl]cyclohexanecarboxamide] | 7.82 | 5.11 | 7.37 | 5.23 |
| CC(C)[C@@H]1CC[C@@H](C)C[C@@]1(O)C(=O)NCC(=O)Nc1ccccc1 [Example 129, (1S,2S,5R)-N-(2-anilino-2-oxo-ethyl)-1-hydroxy-2-isopropyl-5-methyl-cyclohexanecarboxamide] | 8.59 | 5.90 | 8.16 | 5.52 |
| CC(C)[C@@H]1CC[C@@H](C)C[C@@]1(O)C(=O)NCC(=O)c1ccc(F)c(F)c1 [Example 136, (1S,2S,5R)-N-[2-(3,4-difluorophenyl)-2-oxo-ethyl]-1-hydroxy-2-isopropyl-5-methyl-cyclohexanecarboxamide] | 8.89 | 6.29 | 8.57 | 6.21 |
| CC(C)[C@@H]1CC[C@@H](C)C[C@@]1(O)C(=O)NCC(=O)c1cccc(F)c1F [Example 142, (1S,2S,5R)-N-[2-(2,3-difluorophenyl)-2-oxo-ethyl]-1-hydroxy-2-isopropyl-5-methyl-cyclohexanecarboxamide] | 8.40 | 5.48 | 7.92 | 5.85 |
| CC(C)[C@@H]1CC[C@@H](C)C[C@@]1(O)C(=O)NCC(=O)c1ccc(O)cc1 [Example 143, (1S,2S,5R)-1-hydroxy-N-[2-(4-hydroxyphenyl)-2-oxo-ethyl]-2-isopropyl-5-methyl-cyclohexanecarboxamide] | 8.14 | 6.01 | 8.25 | 5.96 |
| CC(C)[C@@H]1CC[C@@H](C)C[C@@]1(O)C(=O)NCC1(O)CCc2ccc(Cl)cc21 (stereo partly drawn) [Example 145, (1S,2S,5R)-N-[(6-chloro-1-hydroxy-indan-1-yl)methyl]-1-hydroxy-2-isopropyl-5-methyl-cyclohexanecarboxamide] | 8.57 | 6.29 | 8.54 | 6.64 |
| CC(C)[C@@H]1CC[C@@H](C)C[C@@]1(O)C(=O)N[C@H](CO)Cc1ccccc1 [Example 146, (1S,2S,5R)-N-[(1S)-1-benzyl-2-hydroxy-ethyl]-1-hydroxy-2-isopropyl-5-methyl-cyclohexanecarboxamide] | 7.80 | 5.62 | 7.80 | 5.92 |

Reference: patent publication US20240124408A1 (Sanofi, priority 2020, published 2024)
